Measured values taken from patent US11576947B2, “Oral composition and method” (Kunming Lanchie Dental Hospital, LTD, priority 2019, dated 2023).
Like-named read-outs stand apart in the source and are kept apart here.

Legend:
[1] = hydrogen peroxide not stabilized, cited from earlier work
[2] = Stability test in propylene glycol (Brilliant Blue color dissipation); assay type: physicochemical; set-up: key: ++++: no color dissipation; +++: slightly dissipation; ++: obvious dissipation; +: totally dissipated
[3] = Stability test in aqueous system (Brilliant Blue color dissipation); assay type: physicochemical; set-up: key: ++++: no color dissipation; +++: slightly dissipation; ++: obvious dissipation; +: totally dissipated
[4] = System stability evaluation: compatibility of ingredients with peroxide source and the system; conditions: for Effect on peroxide and system stability: summary of testing of Tables 2 and 3
[5] = propylene glycol, 2.76% carbamide peroxide, 0.002% Brilliant Blue, compound amount 0.1%, 60 days, room temperature
[6] = water, 2.76% carbamide peroxide, 0.002% Brilliant Blue, compound amount 0.1%, 60 days, room temperature
[7] = propylene glycol, 2.76% carbamide peroxide, 0.002% Brilliant Blue, compound amount 15%, 60 days, room temperature
[8] = water, 2.76% carbamide peroxide, 0.002% Brilliant Blue, compound amount 15%, 60 days, room temperature
[9] = propylene glycol, 2.76% carbamide peroxide, 0.002% Brilliant Blue, compound amount 1%, 60 days, room temperature
[10] = water, 2.76% carbamide peroxide, 0.002% Brilliant Blue, compound amount 1%, 60 days, room temperature
[11] = propylene glycol, 2.76% carbamide peroxide, 0.002% Brilliant Blue, compound amount 2%, 60 days, room temperature
[12] = water, 2.76% carbamide peroxide, 0.002% Brilliant Blue, compound amount 2%, 60 days, room temperature

Q: Which “Oxygen lost % (24 hr, 100 C.)” value ([1]; metal ion added 10 ppm) does the source give for [Al+3] [Al (III)] here?
A: 2%

Q: Which results are given for O=P([O-])([O-])OP(=O)([O-])[O-].[Ca+2].[Ca+2] [Calcium pyrophosphate]?
A: Color (color fading grade) [2]: +; Color (color fading grade) [3]: +

Q: Which “Color (color fading grade)” value [2, 5] does the source give for N=C(NCCCCCCNC(=N)NC(=N)Nc1ccc(Cl)cc1)NC(=N)Nc1ccc(Cl)cc1 [Chlorhexydine, reference compound] here?
A: ++

Q: What about the “Color (color fading grade)” value [3, 6] of the same molecule?
A: +

Q: Which “Oxygen lost % (24 hr, 100 C.)” value ([1]; metal ion added 0.01 ppm) does the source give for [Cu+2] [Cu(II)] here?
A: 24%

Q: For O=C([O-])CN(CCN(CC(=O)[O-])CC(=O)O)CC(=O)O.[Na+].[Na+] [Disodium EDTA], which “Color (color fading grade)” value [2, 5] is on record?
A: +++

Q: What about the “Color (color fading grade)” value [3, 6] of the same molecule?
A: +++

Q: With [Fe+3] [Fe(III)] as the molecule, how does the “Oxygen lost % (24 hr, 100 C.)” value ([1]; metal ion added 10 ppm) read?
A: 15%

Q: With OCC(O)CO [Glycerin] as the molecule, how does the “Color (color fading grade)” value ([2]; propylene glycol, 2.76% carbamide peroxide, 0.002% Brilliant Blue, compound amount 20%, 60 days, room temperature) read?
A: ++

Q: And the “Color (color fading grade)” value ([3]; water, 2.76% carbamide peroxide, 0.002% Brilliant Blue, compound amount 20%, 60 days, room temperature)?
A: +

Q: Which results are given for CCCCCCCCCCCCCCCC[n+]1ccccc1.[Cl-] [Hexadecylpyridinium Chloride, Hexadecylpyridinium chloride, reference compound]?
A: Color (color fading grade) [2, 5]: ++; Color (color fading grade) [3, 6]: +

Q: For CC1CCC(C(C)C)C(O)C1 (centres unmarked) [Menthol], which “Compatibility with the system (cationic biocide and peroxide source)” value (from here on “Compatibility with the system”) [4] is on record?
A: compatible

Q: And the “Color (color fading grade)” value [2, 5]?
A: +++

Q: And the “Color (color fading grade)” value [3, 6]?
A: +++

Q: What does the source list for CCCCCCCCCC[N+](C)(C)CCCCCCCCCC.O=C1CC[C@@H](C(=O)[O-])N1 [PODA, Proline, 5-oxo-, ion(1-), N-decyl-N,N-dimethyl-1-decanaminium (1:1)]?
A: Color (color fading grade) [2, 5]: ++; Color (color fading grade) [3, 6]: +

Q: With O=C([O-])[O-].[Ca+2] [Precipitate calcium carbonate] as the molecule, how does the “Compatibility with the system” value [4] read?
A: not compatible

Q: And the “Effect on peroxide and system stability” value [4]?
A: activate the peroxide and make the system unstable

Q: What about the “Color (color fading grade)” value [2, 7] of the same molecule?
A: +

Q: What about the “Color (color fading grade)” value [3, 8] of the same molecule?
A: +

Q: Which results are given for CCCCCCCCCCCCOS(=O)(=O)[O-].[Na+] [Sodium Dodecyl Sulfate]?
A: Compatibility with the system (cationic biocide and peroxide source) [4]: incompatible; Effect on peroxide and system stability [4]: activate the peroxide and make the system unstable; Color (color fading grade) [2, 9]: +; Color (color fading grade) [3, 10]: +

Q: With O=P([O-])(O)OP(=O)([O-])O.[Na+].[Na+] [Sodium acid pyrophosphate] as the molecule, how does the “Color (color fading grade)” value [2, 9] read?
A: ++

Q: And the “Color (color fading grade)” value [3, 10]?
A: ++

Q: Which “Color (color fading grade)” value [2, 5] does the source give for [F-].[Na+] [Sodium fluoride] here?
A: +++

Q: What about the “Color (color fading grade)” value [3, 6] of the same molecule?
A: ++

Q: Which “Compatibility with the system” value [4] does the source give for O=C1NS(=O)(=O)c2ccccc21.[Na] [Sodium saccharin] here?
A: compatible

Q: What about the “Color (color fading grade)” value [2] of the same molecule?
A: +++

Q: What about the “Color (color fading grade)” value [3] of the same molecule?
A: ++

Q: For O=P(O)(O)OP(=O)(O)OP(=O)(O)O [Sodium tripolyphosphate], which “Compatibility with the system” value [4] is on record?
A: not compatible

Q: What about the “Color (color fading grade)” value ([2]; propylene glycol, 2.76% carbamide peroxide, 0.002% Brilliant Blue, compound amount 5%, 60 days, room temperature) of the same molecule?
A: +

Q: What does the source list for OC[C@@H](O)[C@@H](O)[C@H](O)[C@@H](O)CO [Sorbitol]?
A: Color (color fading grade) ([2]; propylene glycol, 2.76% carbamide peroxide, 0.002% Brilliant Blue, compound amount 60%, 60 days, room temperature): +; Color (color fading grade) ([3]; water, 2.76% carbamide peroxide, 0.002% Brilliant Blue, compound amount 60%, 60 days, room temperature): +

Q: With OC[C@H]1O[C@H](O[C@]2(CCl)O[C@H](CCl)[C@@H](O)[C@@H]2O)[C@H](O)[C@@H](O)[C@H]1Cl [Sucralose] as the molecule, how does the “Compatibility with the system” value [4] read?
A: compatible

Q: What about the “Color (color fading grade)” value ([2]; propylene glycol, 2.76% carbamide peroxide, 0.002% Brilliant Blue, compound amount 0.5%, 60 days, room temperature) of the same molecule?
A: +++

Q: What about the “Color (color fading grade)” value ([3]; water, 2.76% carbamide peroxide, 0.002% Brilliant Blue, compound amount 0.5%, 60 days, room temperature) of the same molecule?
A: ++

Q: Which “Compatibility with the system” value [4] does the source give for O=P([O-])([O-])OP(=O)([O-])[O-].[Na+].[Na+].[Na+].[Na+] [Tetrasodium pyrophosphate] here?
A: not compatible

Q: And the “Color (color fading grade)” value [2]?
A: +

Q: And the “Color (color fading grade)” value [3]?
A: +

Q: Which “Oxygen lost % (24 hr, 100 C.)” value ([1]; metal ion added 10 ppm) does the source give for [Zn+2] [Zn(II)] here?
A: 10%

Q: Which “Color (color fading grade)” value [2, 11] does the source give for Cocamidopropyl betaine here?
A: ++++

Q: And the “Color (color fading grade)” value [3, 12]?
A: ++++

Q: What does the source list for Fatty Alcohol Polyoxyethylene Ether 9?
A: Compatibility with the system (cationic biocide and peroxide source) [4]: compatible; Color (color fading grade) [2, 11]: +++; Color (color fading grade) [3, 12]: +++

Q: Which “Color (color fading grade)” value [2, 11] does the source give for Lauryl glucoside here?
A: +

Q: And the “Color (color fading grade)” value [3, 12]?
A: +

Q: With Natural calcium carbonate as the molecule, how does the “Compatibility with the system” value [4] read?
A: not compatible

Q: And the “Color (color fading grade)” value [2, 7]?
A: +

Q: What about the “Color (color fading grade)” value [3, 8] of the same molecule?
A: +

Q: For Sucrose fatty acid ester, which “Color (color fading grade)” value [2, 9] is on record?
A: +

Q: And the “Color (color fading grade)” value [3, 10]?
A: +
